5 compounds from patent US11733232B2, “Method for producing disease modeling non-human animal, disease modeling non-human animal, and method for screening drug and method for determining risk of disease using the same” (National University Corporation Hokkaido University, priority 2017, dated 2023) can be followed below.

Common to all, as to type: in vivo, C57BL/6 mice
In assay [1] the test system is specific blood vessels in the boundary area of the third ventricle, thalamus, and dentate gyrus. Nature of the assay: Cell accumulation at the specific blood vessels of disease modeling mice (immunohistochemistry, flow cytometry). The conditions noted are these: 0.2 μL of 2 mg/ml microinjected at the specific blood vessels 4 days before T cell transfer; FIG. 22. An excerpt: Accumulation of MHC class II positive cells and CD4 positive T cells in the mice prepared in Example 1 (1) was investigated. The fifth lumbar vertebra and the brain were removed from the mice 10 days after transferring EAE-pathogenic CD4 positive T cells, embedded in SCEM (SECTION-LAB Co., Ltd.), and sliced to sections with a thickness of 10 μm using a microtome device, CM3050 (Leica Microsystems GmbH). Sections were collected using Cryofilm type IIIC (16UF) (SECTION-LAB Co., Ltd.), subjected to hematoxylin eosin staining, or to immunohistochemical staining with an anti-MHC class II antibody or anti-CD4 antibody, and analyzed by BZ-9000 microscope (KEYENCE Corporation) using HS ALL software in BZ-II analyzer (KEYENCE Corporation).
Furthermore, brains were removed from the mice 9 days after transferring EAE-pathogenic CD4 positive T cells, dissected into each parts of the cerebellum and brain stem, cortex, and hippocampus and interbrain, and enzymatically digested with Neural Tissue Dissection kit (Miltenyi Biotec Company) to prepare single cell suspension. […] Then, the cells were analyzed using CyAn flow cytometer (Beckman Coulter Corporation), and the obtained data were analyzed using Summit software (Beckman Coulter Corporation) or FlowJo software (Tree Star, Inc.). […]
On the technique in general: Flow cytometry measures light scatter and fluorescence of single cells or particles in a stream.

Assay [2] has as its system dopamine/noradrenergic neurons. Nature of the assay: Immunostaining of third ventricular regions of chemically sympathectomized mice (tyrosine hydroxylase, phosphorylated CREB). The conditions noted are these: 0.2 μL of 2 mg/ml microinjected at the specific blood vessels 4 days before T cell transfer, 10 days after transfer, FIG. 21. As to the method:
0.2 μL each of 6-hydroxydopamine (6-OHDA) hydrochloride (2 mg/ml), which is a neurotoxin denaturalizing dopamine/noradrenergic neurons, or a vehicle 0.02% ascorbic acid was microinjected at the specific blood vessels of C57BL/6 mice 4 days before transferring EAE-pathogenic CD4 positive T cells (2 days before stress load), in the same way as in the Example 3 (2). Subsequently, induction of sleep disorder and transfer of EAE-pathogenic CD4 positive T cells were performed in the same way as in the Example 1 (1).
Photographs of the immunostained third ventricular regions of chemically sympathectomized mice 10 days after transferring EAE-pathogenic CD4 positive T cells are shown in FIG. 21. The immunostaining was performed with an anti-tyrosine hydroxylase antibody or anti-phosphorylated CREB antibody. 6-OHDA reduced tyrosine hydroxylase-positive sympathetic neurons, and suppressed phosphorylation of CREB induced by noradrenergic receptor-mediated signal transduction.

The test system of assay [3] is mice in which sleep disorder was induced followed by transfer of EAE-pathogenic CD4 positive T cells. Nature of the assay: Pathological conditions (EAE clinical score, mortality, fecal occult blood) of disease modeling mice. As to the method:
Loading PAWW stress and induction of sleep disorder thereby were performed as described previously (Miyazaki, K. et al., PloS one, 2013, 8, e55452). 6-8 weeks old C57BL/6 mice were individually maintained in plastic cages with running wheels for habituation. Then, through loading PAWW stress by replacing wood beddings in the cages with water having depth of 1.5 cm to make the mice exercise continuously on the wheel for 2 days, sleep disorder was induced in the mice.
Preparation and transfer of EAE-pathogenic CD4 positive T cells were performed as described previously (Arima, Y. et al., Cell., 2012, 148, 447-457; Arima, Y. et al., eLife, 2015, 4, e08733; Ogura, H. et al., Immunity, 2008, 29, 628-636). Briefly, C57BL/6 mice were injected subcutaneously with a MOG (35-55) peptide (Sigma-Aldrich Co. LLC.) together with complete Freund's adjuvant (Sigma-Aldrich Co. LLC.) at the base of the tail, then 0, 2, and 7 days after MOG peptide injection, the mice were further injected intravenously with pertussis toxin (Sigma-Aldrich Co. LLC.). 9 days after MOG peptide injection, lymphocytes were collected from the spleens of the mice, sorted with anti-CD4 microbeads (Miltenyi Biotec, Inc.) to obtain a cell population rich in CD4 positive T cells. The resulting cell population (4×10^6 cells) was co-cultured with MOG peptide-pulsed irradiated spleen cells (1×10^7 cells) for 2 days in the presence of rIL-23 (10 ng/mL; R & D Systems, Inc.). Cells were collected from the culture medium, enriched with the anti-CD4 microbeads, and EAE-pathogenic CD4 positive T cells were prepared.
2 days after starting stress load described in (i) above, the EAE-pathogenic CD4 positive T cells (1.5×10^7 cells) prepared in (ii) above were transferred to the mice by intravenous injection to produce disease modeling mice. Also, mice into which EAE-pathogenic CD4 positive T cells were transferred without stress load, mice into which EAE-pathogenic CD4 positive T cells were not transferred after stress load, mice without stress load and without EAE-pathogenic CD4 positive T cells transfer, were prepared.
Pathological conditions of EAE in the mice prepared in Example 1 were evaluated with clinical score. Clinical score was determined as described previously (Arima, Y. et al., Cell, 2012, 148, 447-457; Arima, Y. et al., eLife, 2015, 4, e08733; Ogura, H. et al., Immunity, 2008, 29, 628-636). Clinical scores represent the severity of encephalomyelitis symptoms, and the scores increase with increasing the severity. A score of 0 is equivalent to normal state without abnormal findings, and a score of 5 is equivalent to death.
(§1) Pathological conditions of gastroenteritis in the mice prepared in Example 1 (1) were evaluated on 10 days after the transfer of EAE-pathogenic CD4 positive T cells. Stools collected from each mouse were suspended in saline (20 mL/g stool), the supernatants obtained by centrifugation (8000 rpm, 5 minutes) were diluted to 10 times with saline, and fecal occult blood test was performed with Hemastix (Registered) (Siemens Healthcare Pty, Ltd.). Bloody stool scores were calculated according to the scoring method described on the package of Hemastix.

A further assay deals with PVN and DMH neurons. Nature of the assay: Anti-phosphorylated cfos immunostaining of the hypothalamus (PVN and DMH) after microinjection at the specific blood vessels. The note with it: 2 days after. An excerpt:
Then, whether local inflammation in the brain causes a disease was investigated by directly injecting an inflammatory cytokine at the specific blood vessels. The head of a C57BL/6 mouse with induction of sleep disorder or a control mouse was fixed to a stereotactic device under anesthesia, fur above the skull was shaved, and the skin was cleaned with 70% ethanol. A 30-gauge needle was lowered toward the specific blood vessels (coordinates: AP −1.06 mm; ML 1 mm; DV 2.25 mm), and EAE-pathogenic CD4 positive T cells (1×10^6 cells)+bone marrow derived dendritic cells pulsed with MOG (5×10^5 cells), IFN-γ (50 ng; PeproTech, Inc.)+IL-17A (50 ng; R&D Systems, Inc.), or IL-6 (50 ng; Toray Industries, Inc.)+IL-17A (50 ng) in 0.2 μL each were microinjected over 90 seconds as described previously (Kim et al. (2011), Mol. Brain, 19, 4-6). […]
(§2) Furthermore, at the specific blood vessels of mice in which sleep disorder was induced, IL-6 and IL-17A, with or without a selective antagonist for P2X receptor which is an ATP receptor, A438079 (1 μg), were microinjected, in the same way as in the Example 3 (2). Phosphorylated cfos in the third ventricular region, bloody stool scores, and mortality were evaluated 2 days after the microinjection, and the results are shown in FIG. 34 and FIG. 35. […]

The test system of assay [4] is C57BL/6 mouse with induction of sleep disorder. Nature of the assay: Microinjection at the specific blood vessels of mice with induced sleep disorder: mortality and bloody stool scores. The conditions noted are these: 1 μg microinjected together with IL-6 and IL-17A at the specific blood vessels, 2 days after. The procedure:
as §1
Then, whether local inflammation in the brain causes a disease was investigated by directly injecting an inflammatory cytokine at the specific blood vessels. The head of a C57BL/6 mouse with induction of sleep disorder or a control mouse was fixed to a stereotactic device under anesthesia, fur above the skull was shaved, and the skin was cleaned with 70% ethanol. […]
as §2

Consider `Cl.NCCc1cc(O)c(O)cc1O` [6-OHDA, 6-hydroxydopamine hydrochloride], for which, in assay [1], the “accumulation of CD4 positive T cells at the specific blood vessels” value is listed as “suppressed” and the “accumulation of CD11b positive MHC class II-highly expressing cells at the specific blood vessels” value is listed as “suppressed”. The “phosphorylation of CREB” value in assay [2] is recorded as “suppressed”. The “tyrosine hydroxylase-positive sympathetic neurons” value in assay [2] (vehicle 0.02% ascorbic acid) is on record as “reduced”. The mortality entry in assay [3] (0.2 μL of 2 mg/ml microinjected at the specific blood vessels 4 days before T cell transfer, 10 days after transfer, FIG. 23B) is “improved”. Also, in assay [3] (0.2 μL of 2 mg/ml microinjected at the specific blood vessels 4 days before T cell transfer, FIG. 23A), the clinical scores result is “improved”.
For `Cc1c(OCC(F)(F)F)ccnc1C[S+]([O-])c1nc2ccccc2[nH]1` (stereo not shown) [lansoprazole], the “mortality 10 days after the transfer” value in assay [3] (30 mg/kg body weight orally daily after transfer, control CMC, FIG. 6B) is on record as “remarkably reduced”. Also, the bloody stool scores entry in assay [3] (30 mg/kg body weight orally daily after transfer, control CMC, FIG. 6C) is reported as “remarkably reduced”. Besides, in assay [3] (30 mg/kg body weight orally daily after transferring EAE-pathogenic CD4 positive T cells, control carboxymethyl cellulose, FIG. 6A), the clinical scores result is reported as “remarkably reduced”.
As for `NCc1cc(=O)[nH]o1` [Muscimol, muscimol], the mortality result in assay [3] (0.25 mg/mL microinjected into the DMH 5 days after T cell transfer, 10 days after transfer, FIG. 29B) is recorded as “remarkably improved”. The bloody stool scores entry in assay [3] (0.25 mg/mL microinjected into the DMH 5 days after T cell transfer, 10 days after transfer, FIG. 29C) is listed as “remarkably improved”. In addition, in assay [3] (0.25 mg/mL microinjected into the DMH 5 days after T cell transfer, vehicle saline, FIG. 29A), the clinical scores result is given as “remarkably improved”.
Regarding `Nc1ncnc2c1ncn2[C@@H]1O[C@H](COP(=O)(O)OP(=O)(O)OP(=O)(O)O)[C@@H](O)[C@H]1O` [ATP], the “phosphorylated cfos, that is, neural activation, in the PVN and DMH” value in the assay on PVN and DMH neurons (microinjected at the specific blood vessels of mice with sleep disorder (IFN-γ+IL-17A 50 ng each; ATP 2 μg), FIG. 30) is “activated”.
As to `Clc1cccc(-c2nnnn2Cc2cccnc2)c1Cl` [A438079], in assay [4] (FIG. 35A), the mortality result is reported as “improved”. In assay [4] (FIG. 35B), the “gastroenteritis (bloody stool scores)” value is given as “improved”. Besides, the “neural activation in the PVN and DMH (phosphorylated cfos)” value in the assay with PVN and DMH neurons (1 μg microinjected together with IL-6 and IL-17A at the specific blood vessels of mice with sleep disorder, FIG. 34) was “suppressed”.
